Results published in patent US11905259B1, “2-(benzo[d]oxazol-2-yl)-N′-(4-(dimethylamino)benzoyloxy)acetimidamide as an antimicrobial compound” (KING FAISAL UNIVERSITY, priority 2023, dated 2024).

Experiments:
Bacillus cereus = test: agar plate disc-diffusion, antibacterial activity; format: cell-based
Procedure: (§1) The agar plate disc-diffusion method was applied. […] The discs were then placed onto the surface of agar plates (nutrient agar for bacteria and Sabouraud's dextrose agar for fungi) seeded with the test organism. Each plate contained 15 mL of the agar medium, previously seeded with 0.2 mL of the broth culture of each organism pregrown for 18 hours. The plates were incubated at 37° C. for 48 hours, and 72 hours for fungi. The inhibition zones was measured in mm. Discs impregnated with DMSO were used as a control, and its inhibition zone was subtracted from the tested compound actual inhibition zone.

Escherichia coli = test: agar plate disc-diffusion, antibacterial activity; format: cell-based
Procedure: as §1

Staphylococcus aureus = test: agar plate disc-diffusion, antibacterial activity; format: cell-based
Procedure: as §1

Pseudomonas aeruginosa = test: agar plate disc-diffusion, antibacterial activity; format: cell-based
Procedure: as §1

Aspergillus flavus = test: agar plate disc-diffusion, antifungal activity; format: cell-based
Procedure: (§2) The agar plate disc-diffusion method was applied. Sterilized filter papers (6 mm in diameter) were wetted with 10 μL of a solution of 2-(benzo[d]oxazol-2-yl)-N′-(4-(dimethylamino)benzoyloxy)acetimidamide (3) to be tested, containing 10 mg/mL in DMSO, and the discs were allowed to air dry. The discs were then placed onto the surface of agar plates (nutrient agar for bacteria and Sabouraud's dextrose agar for fungi) seeded with the test organism. Each plate contained 15 mL of the agar medium, previously seeded with 0.2 mL of the broth culture of each organism pregrown for 18 hours. The plates were incubated at 37° C. for 48 hours, and 72 hours for fungi. The inhibition zones was measured in mm. Discs impregnated with DMSO were used as a control, and its inhibition zone was subtracted from the tested compound actual inhibition zone.

[1] = system: Chrysosporium keratinophilum; test: agar plate disc-diffusion, antifungal activity; format: cell-based
Procedure: as §1

different microbes = test: antimicrobial screening, overall statement; format: cell-based; details: against different microbes (bacteria and fungi screened)
Procedure: as §2

[2] = A = concentration of comp. = 10,000 uL
[3] = B = concentration of comp. = 30,000 uL
[4] = C = concentration of comp. = 50,000 uL

Compound | inhibition zone (Bacillus cereus; [2]) [mm] | inhibition zone (Bacillus cereus; [3]) [mm] | inhibition zone (Bacillus cereus; [4]) [mm] | inhibition zone (Escherichia coli; [2]) [mm] | inhibition zone (Escherichia coli; [3]) [mm] | inhibition zone (Escherichia coli; [4]) [mm] | inhibition zone (Staphylococcus aureus; [2]) [mm] | inhibition zone (Staphylococcus aureus; [3]) [mm] | inhibition zone (Staphylococcus aureus; C = concentration of comp.) [mm] | inhibition zone (Pseudomonas aeruginosa; [2]) [mm] | inhibition zone (Pseudomonas aeruginosa; [3]) [mm] | inhibition zone (Pseudomonas aeruginosa; C =) [mm] | inhibition zone (Aspergillus flavus; [2]) [mm] | inhibition zone (Aspergillus flavus; [3]) [mm] | inhibition zone (Aspergillus flavus; [4]) [mm] | inhibition zone [1, 2] [mm] | inhibition zone [1, 3] [mm] | inhibition zone [1, 4] [mm] | melting point [°C] | antimicrobial activities (different microbes)
O=C(O)c1cn(C2CC2)c2cc(N3CCNCC3)c(F)cc2c1=O [Cip., ciprofloxacin, reference compound] | 29 | 31 | 42 | 30 | 39 | 60 | 43 | 44 | 53 | 29 | 30 | 53 | 28 | 31 | 43 | 30 | 33 | 55 | – | –
CN(C)c1ccc(C(=O)O/N=C(\N)Cc2nc3ccccc3o2)cc1 [Compound 3, 2-(benzo[d]oxazol-2-yl)-N′-(4-(dimethylamino)benzoyloxy)acetimidamide] | 26 | 28 | 41 | 27 | 34 | 49 | 17 | 22 | 34 | 25 | 28 | 39 | 21 | 25 | 37 | 25 | 29 | 46 | 165 to 166 | excellent
